This test concerns HeLa cells. In words: CCK-8 cell viability after light irradiation (dose-dependent PDT effect). Format: cell-based, human. The settings on record: 660 nm LED 30 mW cm−2 for 10 minutes. The protocol: In order to determine viability of cells treated with FA-MnO2, HeLa cells (1×10^4 cells/well) were prepared in three (3) 96-well plates for 24 hours, and cultured with FA-MnO2 at different concentrations as well as a complete medium. After incubation for 12 hours, the cells were gently washed with 1×PBS and CCK-8 analysis solution as well as a serum-free medium were added thereto for one hour, followed by measuring absorbance at wavelengths of 450 nm and 670 nm using a micro-plate reader (Molecular Devices, Inc., USA).
Next, in order to determine quantitative cell viability associated with photodynamic effects of FA-MnO2/ZnPc, HeLa cells (1×10^4 cells/well) were seeded on a 96-well plate, incubated for 24 hours, and then, treated with FA-MnO2/ZnPc and ZnPc at various concentrations. After the incubation for 12 hours, each well was irradiated with 660 nm LED (Mikwang Electronics, Korea) at 30 mW cm^−2 for 10 minutes. After additional incubation in a serum-containing medium for 12 hours, analysis of CCK-8 cell vitality was assessed in the same manner as described above.

By IC50 is commonly meant the concentration needed to halve the response being measured. Low values mean greater potency in that assay, high ones weaker potency in that assay.

Molecule `[Zn+2].c1ccc2c(c1)-c1nc-2nc2[n-]c(nc3nc([n-]c4nc(n1)-c1ccccc1-4)-c1ccccc1-3)c1ccccc21` [ZnPc, zinc phthalocyanine] came in with an IC50 of 115.1 ± 3.4 µg/mL.
